Measured values published in patent US10329262B2, “Quinazolinone antibiotics” (priority 2013, dated 2019).
Entries after “also recorded” stand apart in the source; their conditions may differ.

How the values were obtained:
S. aureus NRS100 = assay: MIC, CLSI broth microdilution, S. aureus NRS100; format: cell-based, Staphylococcus aureus
Method: (§1) MICs were evaluated following the CLSI microdilution method in BBL™ Mueller-Hinton II broth (Wikler et al., Clinical Laboratory Standards Institute Document M7-A7, 29 (2009)). Briefly, two-fold serial dilutions of compound were prepared in triplicate in 96-well plates and inoculated with 5×10^5 cfu/mL of the bacterial suspension. Plates were incubated at 37° C. for 16-20 hours.

S. aureus NRS120 = assay: MIC, CLSI broth microdilution, S. aureus NRS120; format: cell-based, Staphylococcus aureus
Method: as §1

S. aureus VRS1 = assay: MIC, CLSI broth microdilution, S. aureus VRS1; format: cell-based, Staphylococcus aureus
Method: as §1

in vivo = details: mouse, in vivo
Method: We conducted first fast PK studies (n=2 mice per time point, 5 time points) dosing the compounds iv, followed by full PK studies for selected compounds (n=3 mice per time point, 10-12 time points per route of administration, iv and po).
A single dose of compound 2 was administered to mice (n=3 per time point) by tail vein injection or by oral gavage at 10 mg/kg. Blood was collected by cardiac puncture in heparinized syringes at 2, 5, 20, and 40 min and at 1, 2, 3, 4, 8, 18, and 24 h after iv dosing and at 0.5, 1, 2, 3, 4, 6, 9, 24, and 30 h after po dosing. Blood was centrifuged to obtain plasma. A 50-μL aliquot of plasma was mixed with 100 μL of acetonitrile containing internal standard (5 μM final concentration), followed by centrifugation at 20,000 g for 15 min. The supernatant was analyzed by reverse-phase UPLC. PK parameters were calculated as described in the Plasma protein binding and Pharmacokinetics sections below (see also Gooyit et al. J. Med. Chem. 54, 6676-6690 (2011)).
The area under the concentration-time curve up to the last quantifiable sampling time (AUC0-last) was calculated by the trapezoidal rule. AUC0-∞ was calculated as AUC0-last+(Clast/k), where Clast is the concentration at the last quantifiable sampling time and k is the elimination rate constant. The concentration at time=0 (C0) was estimated from the first sampling times by back-extrapolation using log-linear regression analysis. Half-lives (t1/2α and t1/2β) were estimated from the linear portion of the initial or terminal concentration-time data by linear regression, where the slope of the line was the rate constant k and t1/2α=ln 2/k. Volume of distribution (Vd) was calculated as the dose divided by the initial concentration (C0). Clearance (CL) was calculated from the dose divided by AUC0-∞. Oral bioavailability (F) was calculated by dividing the AUCpo by the AUCiv, as equivalent iv and po doses were administered.

HepG2 cells = assay: cells; details: Homo sapiens, HepG2, 16 h, read-out: IC50, XTT cell proliferation assay
Method: HepG2 cells (ATCC HB-8065) were maintained in monolayer culture at 37° C. and 5% CO2 in Dulbecco's Modified Eagle's Medium supplemented with 10% fetal bovine serum, non-essential amino acids, 2 mM L-glutamine, and 1% penicillin-streptomycin. […] The cells were washed with Dulbecco's PBS twice, 150 μL of XTT working solution was added to each well, followed by 3-h incubation. Absorbance at 475 nm (test wavelength) and 660 nm (reference wavelength) was read with a microplate reader. Experiments were performed in triplicate and repeated twice. IC50 values were calculated using GraphPad prism 5.

[1] = Metabolic stability in human S9; format: in vitro ADME; details: human S9, 2 μM
Method: Aliquots were taken at 0, 5, 10, 20, 30, 40, and 60 min, and mixed with two volumes of acetonitrile containing internal standard. The precipitated protein was centrifuged at 20,000 g for 15 min, and the supernatant was analyzed by reversed-phase UPLC.

[2] = Plasma protein binding, rapid equilibrium dialysis, human; format: in vitro ADME; details: humans, 10 μM, 6 h dialysis
Method: Aliquots from both chambers were quenched with 1:2 v/v acetonitrile containing an internal standard. The samples were concentrated to dryness on a miVac concentrator and the residue resuspended in 50:50 acetonitrile/water. Samples were analyzed by reverse-phase ultraperformance liquid chromatography (UPLC) with UV/Vis detection. Plasma protein binding of quinazolinone 2 was 98.0±0.04% in mice and 96.5±0.70% in humans.

[3] = test system: E. coli S30 extract system; assay: In vitro translation assay (E. coli S30 extract, β-galactosidase); format: biochemical; details: up to 64 μg/mL
Excerpt: For in vitro translation, the E. coli S30 Extract System for Circular DNA was used to set up the reactions using plasmid pCP19 containing the lacZ gene for β-galactosidase. Reaction mixtures were supplemented with two-fold dilutions of antibiotic 2 and the β-Galactosidase Enzyme Assay System with Reporter Lysis Buffer was used to quantify the amount of β-galactosidase translated by measuring absorbance at 420 nm. For in vitro transcription, a TranscriptAid T7 High Yield Transcription kit was used with a pET24a/dacB DNA construct under the T7 promoter. The purified plasmid was linearized using the restriction endonuclease XhoI and then purified according to the manufacturer's instructions. A series of samples were prepared and supplemented with two-fold dilutions of antibiotic 2. Samples were analyzed by running on a denaturing 1% formaldehyde agarose gel and stained with ethidium bromide to visualize RNA. Intensities of the bands were quantified and compared to the control to determine the amount of transcription occurring in the presence of 2.

## N#Cc1ccc(/C=C/c2nc3ccccc3c(=O)n2-c2cccc(C(=O)O)c2)cc1.[Na] [Compound 2, Sodium (E)-3-(3-carboxyphenyl)-2-(4-cyanostyryl)quinazolin-4(3H)-one]
S. aureus NRS100; Staphylococcus aureus, NRS100
  MIC: 16 mg/L
S. aureus NRS100; Table 2.1, S. aureus NRS100
  In vitro AB activity (MIC): 16 mg/L
S. aureus NRS120; Staphylococcus aureus, NRS120
  MIC: 8 mg/L
S. aureus NRS120; Table 2.1, S. aureus NRS120
  In vitro AB activity (MIC): 8 mg/L
S. aureus VRS1; Staphylococcus aureus, VRS1
  MIC: 16 mg/L
S. aureus VRS1; Table 2.1, S. aureus VRS1
  In vitro AB activity (MIC): 16 mg/L
In vivo; ICR, iv, 10 mg/kg
  clearance: 0.426 L/h/kg
  concentration at 24 h: 0.142 ± 0.053 µg/mL
  t1/2elimination: 22 h
In vivo; ICR, po, 10 mg/kg
  half-life: 58 h
In vivo; female, ICR, iv
  AUC: 23.5 µg·h/mL
  clearance: 0.426 L/h/kg
In vivo; female, ICR, iv, 10 mg/kg
  Vd: 0.0076 L
  half-life: 22 h
In vivo; female, ICR, po, 10 mg/kg
  AUC: 15.5 µg·h/mL
In vivo; female, ICR, po, 10 mg/kg, F (oral bioavailability)
  bioavailability: 66%
In vivo; 10 mg/kg, F (absolute oral bioavailability)
  bioavailability: 66%
In vivo; iv, 10 mg/kg
  AUC(0-inf): 23.5 µg·h/mL
  AUC(0-t): 19.7 µg·h/mL
  C0: 33 µg/mL
  Clearance as share of hepatic blood flow in mice: less than 10%
  Distribution t1/2α: 0.243 h
  Vd: 0.303 L/kg
  Volume of distribution: 0.3 L/kg
  clearance: 0.424 L/h/kg
  concentration at 24 h: 0.142 ± 0.053 µg/mL
  t1/2distribution: 0.242 h
  t1/2elimination: 22.3 h
In vivo; iv, 10 mg/kg, 24 h
  Plasma level at 24 hours: 0.142 ± 0.053 µg/mL
In vivo; po, 10 mg/kg
  AUC(0-inf): 15.5 µg·h/mL
  AUC(0-t): 6.55 µg·h/mL
  Cmax: 1.29 µg/mL
  Time of maximum concentration: 1 h
  half-life: 58.2 h
  t1/2distribution: 2.06 h
HepG2 cells
  IC50: 63 ± 1 mg/L
[1]
  Compound remaining after 1-h incubation: 100%
[2]
  Plasma protein binding: 96.5±0.70%
[3]
  Inhibition of in vitro translation: did not show any inhibition; also recorded: No inhibition
